Measured values taken from patent US8796244B2, “Imidazopyridine derivatives as inhibitors of receptor tyrosine kinases” (Astex Therapeutics Ltd, priority 2008, dated 2014).
pIC50: −log10 of the molar value. Where a name gives a salt, the structure may show the parent alone. Read-outs that look alike come from different tables or passages of the source.

Tested on: parental wild-type Ba/F3 cells
Assay: Ba/F3 (WT) cell proliferation assay (Alamar Blue)
Assay type: cell-based
Conditions: Mus musculus; for pIC50: BaF3, 72 hours, Alamar Blue, read-out: BaF3 WT prolif; for inhibition at 3 µM / inhibition at 10 µM / inhibition at 1 µM: BaF3, read-out: BaF3 WT prolif, % inhibition; for IC50: BaF3, 72 h, read-out: BaF3 WT prolif (μM)

| Structure (SMILES) | pIC50 | inhibition at 10 µM [%] | also measured |
| --- | --- | --- | --- |
| CC(C)n1ccnc1C#Cc1ccn2c(-c3cccc(NC(=O)NCC(F)(F)F)c3)cnc2c1 [Compound 266] | 5.85 | – | – |
| O=C(NCC(F)(F)F)Nc1cccc(-c2cnc3cc(-c4nccc(N5CCNCC5)n4)ccn23)c1 [Compound 269] | – | – | inhibition at 3 µM: 0% |
| Nc1nc(-c2ccn3c(-c4cccc(NC(=O)NCC(F)(F)F)c4)cnc3c2)ncc1C(=O)O [Compound 277] | – | 0 | – |
| Cn1ccnc1C#Cc1ccn2c(-c3cccc(NC(=O)NCC(F)(F)F)c3)cnc2c1 [Compound 282] | 5.55 | 23 | – |
| CCOC(=O)c1cnc(-c2ccn3c(-c4cccc(NC(=O)NCC(F)(F)F)c4)cnc3c2)nc1N [Compound 287] | 6.00 | – | – |
| COC(=O)c1cnc(-c2ccn3c(-c4cccc(NC(=O)NCC(F)(F)F)c4)cnc3c2)nc1 [Compound 290] | – | – | inhibition at 1 µM: 16% |
| CC(=O)c1cnc(-c2ccn3c(-c4cccc(NC(=O)NCC(F)(F)F)c4)cnc3c2)nc1 [Compound 292] | – | 38 | – |
| CC(F)(F)c1cnc(-c2ccn3c(-c4cccc(NC(=O)NCC(F)(F)F)c4)cnc3c2)nc1 [Compound 293] | – | – | inhibition at 3 µM: 36% |
| O=C(NCC(F)(F)F)Nc1cc(Br)cc(-c2cnc3cc(-c4ccnc(C(F)(F)F)n4)ccn23)c1 [Compound 294] | – | – | inhibition at 3 µM: 22% |
| O=C(NCC(F)(F)F)Nc1cc(CO)cc(-c2cnc3cc(-c4ccnc(C(F)(F)F)n4)ccn23)c1 [Compound 295] | – | 30 | – |
| O=C(NCC(F)(F)F)Nc1cc(Cl)cc(-c2cnc3cc(-c4ccnc(C(F)(F)F)n4)ccn23)c1 [Compound 297] | 5.26 | – | – |
| COc1cc(NC(=O)NCC(F)(F)F)cc(-c2cnc3cc(-c4ccnc(C(F)(F)F)n4)ccn23)c1 [Compound 298] | 5.52 | – | – |
| N#Cc1cc(NC(=O)NCC(F)(F)F)cc(-c2cnc3cc(-c4ccnc(C(F)(F)F)n4)ccn23)c1 [Compound 299] | – | – | inhibition at 1 µM: 17% |
| Nc1nc(-c2ccn3c(-c4cc(Cl)cc(NC(=O)NCC(F)(F)F)c4)cnc3c2)ncc1F [Compound 300] | – | 0 | – |
| O=C(NCC(F)(F)F)Nc1cc(-c2cnc3cc(-c4ncccn4)ccn23)cc(C(F)(F)F)c1 [Compound 301] | 5.55 | – | – |
| O=C(NCC(F)(F)F)Nc1cc(F)cc(-c2cnc3cc(-c4ncccn4)ccn23)c1 [Compound 302] | – | 0 | – |
| O=C(NCC(F)(F)F)Nc1cc(O)cc(-c2cnc3cc(-c4ccnc(C(F)(F)F)n4)ccn23)c1 [Compound 303] | – | 0 | – |
| Nc1nc(-c2ccn3c(-c4cc(F)cc(NC(=O)NCC(F)(F)F)c4)cnc3c2)ncc1F [Compound 305] | – | 6 | – |
| CC(=O)c1cnc(-c2ccn3c(-c4cccc(NC(=O)NCC(F)(F)F)c4)cnc3c2)nc1N [Compound 308] | – | 0 | – |
| O=C(NCC(F)(F)F)Nc1cc(Cl)cc(-c2cnc3cc(-c4ncccn4)ccn23)c1 [Compound 309] | 5.64 | – | – |
| Nc1cnc(-c2ccn3c(-c4cccc(NC(=O)NCC(F)(F)F)c4)cnc3c2)nc1N [Compound 312] | – | 3 | – |

| Structure (SMILES) | pIC50 | inhibition at 10 µM [%] | also measured |
| --- | --- | --- | --- |
| CNc1nc(-c2ccn3c(-c4cccc(NC(=O)NCC(F)(F)F)c4)cnc3c2)ncc1N [Compound 313] | – | 18 | – |
| CCOC(=O)Nc1nc(-c2ccn3c(-c4cccc(NC(=O)NCC(F)(F)F)c4)cnc3c2)ncc1F [Compound 315] | – | 35 | – |
| Nc1nc(-c2ccn3c(-c4cccc(NC(=O)NCC(F)(F)F)c4)cnc3c2)ncc1OCCO [Compound 316] | – | 0 | – |
| CC(C)(C)OC(=O)NCC1CCN(c2ccc(-c3ccn4c(-c5cccc(NC(=O)NCC(F)(F)F)c5)cnc4c3)cn2)CC1 [Compound 318] | 6.38 | – | – |
| CC(C)(O)c1cccc(-c2ccn3c(-c4cccc(NC(=O)NCC(F)(F)F)c4)cnc3c2)c1 [Compound 320] | 6.15 | – | – |
| Nc1cc(C(F)(F)F)nc(-c2ccn3c(-c4cccc(NC(=O)NCC(F)(F)F)c4)cnc3c2)n1 [Compound 322] | 5.92 | – | – |
| CC(C)c1cc(N)nc(-c2ccn3c(-c4cccc(NC(=O)NCC(F)(F)F)c4)cnc3c2)n1 [Compound 323] | – | – | inhibition at 1 µM: 0% |
| COCc1cc(N)nc(-c2ccn3c(-c4cccc(NC(=O)NCC(F)(F)F)c4)cnc3c2)n1 [Compound 324] | – | 9.4 | – |
| Cc1nnc(-c2ccn3c(-c4cccc(NC(N)=O)c4)cnc3c2)o1 [Compound 328] | – | – | inhibition at 3 µM: 34% |
| Nc1nc(-c2ccn3c(-c4cccc(NC(=O)NCC(F)(F)F)c4)cnc3c2)ncc1CO [Compound 332] | – | 0 | – |
| O=C(NCC(F)(F)F)Nc1cccc(-c2cnc3cc(-c4ncc(C(=O)O)cn4)ccn23)c1 [Compound 333] | – | – | inhibition at 1 µM: 0% |
| COCc1cc(-c2ccn3c(-c4cccc(NC(=O)NCC(F)(F)F)c4)cnc3c2)nc(N)n1 [Compound 335] | 6.13 | 20 | – |
| CC(C)(C(=O)NC1CC1)n1cc(-c2ccn3c(-c4cccc(NC(=O)NCC(F)(F)F)c4)cnc3c2)cn1 [Example 71, N-Cyclopropyl-2-[4-(3-{3-[3-(2,2,2-trifluoro-ethyl)-ureido]-phenyl}-imidazo[1,2-a]pyridin-yl)-pyrazol-1-yl)-isobutyramide] | 5.82 | – | – |
| Cc1cc2ncc(-c3cccc(NC(=O)NCC(F)(F)F)c3)n2cc1C [Example 77, 1-[3-(6,7-Dimethyl-imidazo[1,2-a]pyridin-3-yl)-phenyl]-3-(2,2,2-trifluoro-ethyl)-urea formate] | – | 53 | – |
| Nc1nccnc1-c1ccn2c(-c3cccc(NC(=O)NCC(F)(F)F)c3)cnc2c1 [Example 84, 1-{3-[7-(3-Amino-pyrazin-2-yl)-imidazo[1,2-a]pyridin-3-yl]-phenyl}-3-(2,2,2-trifluoro-ethyl)-urea] | 5.85 | – | – |
| O=C(NCC(F)(F)F)Nc1cccc(-c2cnc3cc(-c4cc(F)ccn4)ccn23)c1 [Example 103, 1-{3-[7-(4-Fluoro-pyridin-2-yl)-imidazo[1,2-a]pyridin-3-yl]-phenyl}-3-(2,2,2-trifluoro-ethyl)-urea] | 7.11 | – | – |
| Cc1cccnc1-c1ccn2c(-c3cccc(NC(=O)NCC(F)(F)F)c3)cnc2c1 [Example 104, 1-{3-[7-(3-Methyl-pyridin-2-yl)-imidazo[1,2-a]pyridin-3-yl]-phenyl}-3-(2,2,2-trifluoro-ethyl)-urea formate] | – | – | IC50: 0.4 µM |
| O=C(NCC(F)(F)F)Nc1cccc(-c2cnc3cc(-c4cnc(O)cn4)ccn23)c1 [Example 105, 1-{3-[7-(5-Hydroxy-pyrazin-2-yl)-imidazo[1,2-a]pyridin-3-yl]-phenyl}-3-(2,2,2-trifluoro-ethyl)-urea hydrochloride] | – | 16 | – |
| Nc1cccc(-c2ccn3c(-c4cccc(NC(=O)NCC(F)(F)F)c4)cnc3c2)n1 [Example 106, 1-{3-[7-(6-Amino-pyridin-2-yl)-imidazo[1,2-a]pyridin-3-yl]-phenyl}-3-(2,2,2-trifluoro-ethyl)-urea hydrochloride] | – | – | IC50: 0.41 µM |
| O=C(NCC(F)(F)F)Nc1cccc(-c2cnc3cc(-c4cccc(CCO)c4)ccn23)c1 [Example 107, 1-(3-{7-[3-(2-Hydroxy-ethyl)-phenyl]-imidazo[1,2-a]pyridin-yl}-phenyl)-3-(2,2,2-trifluoro-ethyl)-urea formate] | – | – | IC50: 0.89 µM |
| O=C(NCC(F)(F)F)Nc1cccc(-c2cnc3cc(-c4nccc(N5CCC(O)CC5)n4)ccn23)c1 [Example 109, 1-(3-{7-[4-(4-Hydroxy-piperidin-1-yl)-pyrimidin-2-yl]-imidazo[1,2-a]pyridin-3-yl}-phenyl)-3-(2,2,2-trifluoro-ethyl)-urea] | 4.49 | – | – |
